Measurements published in the supplement of paper PMC6045584.
± gives the standard deviation of the averaged measurements.

How the values were obtained:
[1] = compound: CC(=O)NCC(=O)N1[C@@H]2CC[C@H]1c1ccc(Nc3ncc(C(F)(F)F)c(NC4CCC4)n3)cc12; assay: surviving fraction relative to DMSO-only wells; higher = less growth inhibition; details: exposure time: 5 days
In short: (§1)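 Viability values are CellTiter-Glo luminescence readings, given as surviving fraction against the median of DMSO-only wells. The readings were taken after 10 minutes at room temperature, following five days of continuous exposure to inhibitors at 0.5, 1, 5, 10, 50, 100, 500 and 1000 nM that began 24 hours after log-phase tumour cell lines were seeded at 250–500 cells per well in 384-well plates. Every line was screened three times and kept only if replicate Pearson r >0.7 and median Z' >0.3.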

PACLITAXEL [2] = compound: T1, CC(=O)O[C@H]1C(=O)[C@@]2(C)[C@H]([C@H](OC(=O)c3ccccc3)[C@]3(O)C[C@H](OC(=O)[C@H](O)[C@@H](NC(=O)c4ccccc4)c4ccccc4)C(C)=C1C3(C)C)[C@]1(OC(C)=O)CO[C@@H]1C[C@@H]2O [PACLITAXEL]; assay: as above; details: exposure time: 5 days
In short: as §1

[3] = compound: CC(=O)c1c(C)c2cnc(Nc3ccc(N4CCNCC4)cn3)nc2n(C2CCCC2)c1=O; assay: as above; details: exposure time: 5 days
In short: as §1

CAMPTOTHECIN [4] = compound: T2, CC[C@@]1(O)C(=O)OCc2c1cc1n(c2=O)Cc2cc3ccccc3nc2-1 [CAMPTOTHECIN]; assay: as above; details: exposure time: 5 days
In short: as §1

YM155 [5] = compound: T3, COCC[n+]1c2c(n(Cc3cnccn3)c1C)C(=O)c1ccccc1C2=O [YM155]; assay: as above; details: exposure time: 5 days
In short: as §1

GEFITINIB = compound: COc1cc2ncnc(Nc3ccc(F)c(Cl)c3)c2cc1OCCCN1CCOCC1 [GEFITINIB]; assay: as above; details: exposure time: 5 days
In short: as §1

OSI-906 [6] = compound: T4, C[C@]1(O)C[C@@H](c2nc(-c3ccc4ccc(-c5ccccc5)nc4c3)c3c(N)nccn32)C1 [OSI-906]; assay: as above; details: exposure time: 5 days
In short: as §1

CELECOXIB [7] = compound: T5, Cc1ccc(-c2cc(C(F)(F)F)nn2-c2ccc(S(N)(=O)=O)cc2)cc1 [CELECOXIB]; assay: as above; details: exposure time: 5 days
In short: as §1

CARBOPLATIN [8] = compound: T6, O=C(O)C1(C(=O)O)CCC1.[NH2-].[NH2-].[Pt+2] [CARBOPLATIN]; assay: as above; details: exposure time: 5 days
In short: as §1

[9] = compound: CC(=O)NCC(=O)N1[C@@H]2CC[C@H]1c1ccc(Nc3ncc(C(F)(F)F)c(NC4CCC4)n3)cc12; assay: area under dose-response curve of surviving fraction (unscaled, Aref=0) (surviving fraction x log10(nM)); higher = more resistant; details: exposure time: 5 days; dose range 0.5-1000 nM
In short: (§2)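 Tumour cell lines in 384-well plates were exposed for five days to eight inhibitor concentrations from 0.5 to 1000 nM. Viability was read by CellTiter-Glo luminescence, normalised to DMSO-only wells, in three screens per line. Dose-response survival curves were fitted to surviving fractions by 3-parameter logistic regression in the drc R package. Area under the curve is the unscaled activity area (Aref = 0) over log10 dose.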

PACLITAXEL [10] = compound: T1, PACLITAXEL; assay: as above; details: exposure time: 5 days; dose range 0.5-1000 nM
In short: as §2

[11] = compound: CC(=O)c1c(C)c2cnc(Nc3ccc(N4CCNCC4)cn3)nc2n(C2CCCC2)c1=O; assay: as above; details: exposure time: 5 days; dose range 0.5-1000 nM
In short: as §2

CAMPTOTHECIN [12] = compound: T2, CAMPTOTHECIN; assay: as above; details: exposure time: 5 days; dose range 0.5-1000 nM
In short: as §2

YM155 [13] = compound: T3, YM155; assay: as above; details: exposure time: 5 days; dose range 0.5-1000 nM
In short: as §2

OSI-906 [14] = compound: T4, OSI-906; assay: as above; details: exposure time: 5 days; dose range 0.5-1000 nM
In short: as §2

CELECOXIB [15] = compound: T5, CELECOXIB; assay: as above; details: exposure time: 5 days; dose range 0.5-1000 nM
In short: as §2

CARBOPLATIN [16] = compound: T6, CARBOPLATIN; assay: as above; details: exposure time: 5 days; dose range 0.5-1000 nM
In short: as §2

In the case of HCC70 BREAST, the surviving fraction ([1]; 0.5 nM) is reported as 0.976 ± 0.052, the surviving fraction ([1]; 1 nM) is reported as 1.03 ± 0.057 and the surviving fraction ([1]; 5 nM) is reported as 0.982 ± 0.099. For the same test system, the surviving fraction ([1]; 10 nM) was 1.01 ± 0.033, the surviving fraction ([1]; 50 nM) was 0.864 ± 0.051 and the surviving fraction ([1]; 100 nM) was 0.488 ± 0.026. It also gave a surviving fraction ([1]; 500 nM) of 0.243 ± 0.052, a surviving fraction ([1]; 1000 nM) of 0.203 ± 0.036 and a surviving fraction (PACLITAXEL [2]; 0.5 nM) of 0.937 ± 0.071. The surviving fraction (PACLITAXEL [2]; 1 nM) was 0.81 ± 0.07, the surviving fraction (PACLITAXEL [2]; 5 nM) was 0.218 ± 0.029 and the surviving fraction (PACLITAXEL [2]; 10 nM) was 0.102 ± 0.019. It also gave a surviving fraction (PACLITAXEL [2]; 50 nM) of 0.099 ± 0.032, a surviving fraction (PACLITAXEL [2]; 100 nM) of 0.0517 ± 0.014 and a surviving fraction (PACLITAXEL [2]; 500 nM) of 0.0543 ± 0.015. It also gave a surviving fraction (PACLITAXEL [2]; 1000 nM) of 0.0647 ± 0.031, a surviving fraction ([3]; 0.5 nM) of 1.02 ± 0.051 and a surviving fraction ([3]; 1 nM) of 0.999 ± 0.056. It also gave a surviving fraction ([3]; 5 nM) of 1.13 ± 0.032, a surviving fraction ([3]; 10 nM) of 1.05 ± 0.034 and a surviving fraction ([3]; 50 nM) of 1.155 ± 0.0084. It also gave a surviving fraction ([3]; 100 nM) of 1.08 ± 0.08, a surviving fraction ([3]; 500 nM) of 0.983 ± 0.066 and a surviving fraction ([3]; 1000 nM) of 1.1 ± 0.055. It also gave a surviving fraction (CAMPTOTHECIN [4]; 0.5 nM) of 0.905 ± 0.12, a surviving fraction (CAMPTOTHECIN [4]; 1 nM) of 1.04 ± 0.029 and a surviving fraction (CAMPTOTHECIN [4]; 5 nM) of 0.958 ± 0.092. For the same test system, the surviving fraction (CAMPTOTHECIN [4]; 10 nM) was 0.63 ± 0.044, the surviving fraction (CAMPTOTHECIN [4]; 50 nM) was 0.443 ± 0.045 and the surviving fraction (CAMPTOTHECIN [4]; 100 nM) was 0.385 ± 0.015. The surviving fraction (CAMPTOTHECIN [4]; 500 nM) was 0.119 ± 0.061, the surviving fraction (CAMPTOTHECIN [4]; 1000 nM) was 0.0573 ± 0.0076 and the surviving fraction (YM155 [5]; 0.5 nM) was 1.09 ± 0.1. For the same test system, the surviving fraction (YM155 [5]; 1 nM) was 1.04 ± 0.11, the surviving fraction (YM155 [5]; 5 nM) was 1.01 ± 0.11 and the surviving fraction (YM155 [5]; 10 nM) was 0.934 ± 0.069. It also gave a surviving fraction (YM155 [5]; 50 nM) of 0.632 ± 0.049, a surviving fraction (YM155 [5]; 100 nM) of 0.515 ± 0.044 and a surviving fraction (YM155 [5]; 500 nM) of 0.135 ± 0.023. It also gave a surviving fraction (YM155 [5]; 1000 nM) of 0.068 ± 0.007, a surviving fraction (GEFITINIB; 0.5 nM) of 1.03 ± 0.13 and a surviving fraction (GEFITINIB; 1 nM) of 0.976 ± 0.048. It also gave a surviving fraction (GEFITINIB; 5 nM) of 1.15 ± 0.14, a surviving fraction (GEFITINIB; 10 nM) of 1.02 ± 0.075 and a surviving fraction (GEFITINIB; 50 nM) of 1.03 ± 0.042. The surviving fraction (GEFITINIB; 100 nM) was 1.01 ± 0.088, the surviving fraction (GEFITINIB; 500 nM) was 0.815 ± 0.048 and the surviving fraction (GEFITINIB; 1000 nM) was 0.848 ± 0.068. For the same test system, the surviving fraction (OSI-906 [6]; 0.5 nM) was 0.861 ± 0.13, the surviving fraction (OSI-906 [6]; 1 nM) was 1.02 ± 0.099 and the surviving fraction (OSI-906 [6]; 5 nM) was 1.04 ± 0.081. The surviving fraction (OSI-906 [6]; 10 nM) was 1.02 ± 0.055, the surviving fraction (OSI-906 [6]; 50 nM) was 1.04 ± 0.018 and the surviving fraction (OSI-906 [6]; 100 nM) was 1.08 ± 0.017. For the same test system, the surviving fraction (OSI-906 [6]; 500 nM) was 1 ± 0.053, the surviving fraction (OSI-906 [6]; 1000 nM) was 0.924 ± 0.11 and the surviving fraction (CELECOXIB [7]; 0.5 nM) was 1.07 ± 0.049. For the same test system, the surviving fraction (CELECOXIB [7]; 1 nM) was 1.045 ± 0.0081, the surviving fraction (CELECOXIB [7]; 5 nM) was 1.08 ± 0.067 and the surviving fraction (CELECOXIB [7]; 10 nM) was 1.13 ± 0.091. The surviving fraction (CELECOXIB [7]; 50 nM) was 1.06 ± 0.044, the surviving fraction (CELECOXIB [7]; 100 nM) was 1.04 ± 0.099 and the surviving fraction (CELECOXIB [7]; 500 nM) was 1.2 ± 0.14. It also gave a surviving fraction (CELECOXIB [7]; 1000 nM) of 1.18 ± 0.038, a surviving fraction (CARBOPLATIN [8]; 0.5 nM) of 1.04 ± 0.049 and a surviving fraction (CARBOPLATIN [8]; 1 nM) of 1.07 ± 0.078. For the same test system, the surviving fraction (CARBOPLATIN [8]; 5 nM) was 1.13 ± 0.14, the surviving fraction (CARBOPLATIN [8]; 10 nM) was 1.13 ± 0.05 and the surviving fraction (CARBOPLATIN [8]; 50 nM) was 1.19 ± 0.064. The surviving fraction (CARBOPLATIN [8]; 100 nM) was 0.999 ± 0.049, the surviving fraction (CARBOPLATIN [8]; 500 nM) was 1.06 ± 0.082 and the surviving fraction (CARBOPLATIN [8]; 1000 nM) was 1.02 ± 0.054. The “area under dose-response curve” value [9] was 2.46, the “area under dose-response curve” value (PACLITAXEL [10]) was 0.799 and the “area under dose-response curve” value [11] was 3.53. For the same test system, the “area under dose-response curve” value (CAMPTOTHECIN [12]) was 1.9, the “area under dose-response curve” value (YM155 [13]) was 2.27 and the “area under dose-response curve” value (OSI-906 [14]) was 3.29. The “area under dose-response curve” value (CELECOXIB [15]) was 3.62 and the “area under dose-response curve” value (CARBOPLATIN [16]) was 3.56.
